#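 Values below derive from 48-hour exposures of cells grown in 96-well plates, with endpoints linearly interpolated between the two concentrations bracketing the appropriate inhibition level. GI50: concentration for 50% inhibition of growth. At the TGI there is no net growth.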
# Key:
# Assay in all cases: DTP human tumour cell line panel, 48 h
# [1] = tested on: PC-3 prostate
# [2] = tested on: HOP-62 NSCLC
# [3] = tested on: SN12C renal
# [4] = tested on: SW-620 colon
# [5] = tested on: EKVX NSCLC
# [6] = tested on: OVCAR-4 ovarian
# [7] = tested on: UO-31 renal
# [8] = tested on: MDA-MB-231 breast
# [9] = tested on: OVCAR-8 ovarian
# [10] = tested on: IGROV1 ovarian
# [11] = tested on: SF-295 CNS
# [12] = tested on: SK-MEL-2 melanoma
# [13] = tested on: NCI-H460 lung
# [14] = tested on: ACHN renal
# [15] = tested on: NCI-H226 lung
# [16] = tested on: U251 CNS
# [17] = tested on: SK-MEL-28 melanoma
# [18] = tested on: SR leukemia
# [19] = tested on: SF-268 CNS
# [20] = tested on: A549 NSCLC
# [21] = tested on: HCT-15 colon
# [22] = tested on: HCT-116 colon
# [23] = tested on: CCRF-CEM leukemia
# [24] = tested on: KM12 colon
# [25] = tested on: MCF7 breast
# [26] = tested on: RXF 393 renal
# [27] = tested on: HCC-2998 colon
# [28] = tested on: NCI-H23 lung
# [29] = tested on: M14 melanoma
# [30] = tested on: UACC-257 melanoma
# [31] = tested on: HS 578T breast
# [32] = tested on: HT29 colon
# [33] = tested on: A498 renal
# [34] = tested on: MOLT-4 leukemia
# [35] = tested on: UACC-62 melanoma
# [36] = tested on: LOX IMVI melanoma
# [37] = tested on: NCI-H522 lung
# [38] = tested on: RPMI-8226 leukemia
# [39] = tested on: K-562 leukemia
# [40] = tested on: TK-10 renal
# [41] = tested on: SF-539 CNS
# [42] = tested on: NCI/ADR-RES ovarian
# [43] = tested on: DU-145 prostate
# [44] = tested on: OVCAR-3 ovarian
# [45] = tested on: COLO 205 colon
# [46] = tested on: T-47D breast
# [47] = tested on: SNB-19 CNS
# [48] = tested on: HOP-92 NSCLC
# [49] = tested on: SK-OV-3 ovarian
# [50] = tested on: SK-MEL-5 melanoma
# [51] = tested on: OVCAR-5 ovarian
# [52] = tested on: HL-60(TB) leukemia
# [53] = tested on: MDA-MB-435
# [54] = tested on: CAKI-1 renal
# [55] = tested on: BT-549 breast
# [56] = tested on: SNB-75 CNS
# [57] = tested on: MALME-3M melanoma
# [58] = tested on: 786-0 renal
structure (smiles),measurement,setting,value
COc1cccc2[nH]c3c4c(c5c(c3c12)C(=O)N(CN1CCN(C)CC1)C5=O)CCC4,GI50,[1],6.58 µM
same,TGI,[1],> 46.7 µM
same,GI50,[2],14.5 µM
same,TGI,[2],39.1 µM
same,GI50,[3],11.2 µM
same,TGI,[3],33.9 µM
same,GI50,[4],13.6 µM
same,TGI,[4],38 µM
same,GI50,[5],14.1 µM
same,TGI,[5],83.3 µM
same,GI50,[6],8.03 µM
same,TGI,[6],26.9 µM
same,GI50,[7],2.76 µM
same,TGI,[7],> 23.8 µM
same,GI50,[8],15 µM
same,TGI,[8],31.3 µM
same,GI50,[9],8.6 µM
same,TGI,[9],26.5 µM
same,GI50,[10],4.79 µM
same,TGI,[10],> 46.1 µM
same,GI50,[11],10.1 µM
same,TGI,[11],25.6 µM
same,GI50,[12],22.7 µM
same,TGI,[12],> 100 µM
same,GI50,[13],6.35 µM
same,TGI,[13],25.8 µM
same,GI50,[14],5.81 µM
same,TGI,[14],36.4 µM
same,GI50,[15],9.46 µM
same,TGI,[15],> 90.9 µM
same,GI50,[16],6.3 µM
same,TGI,[16],21.8 µM
same,GI50,[17],10.8 µM
same,TGI,[17],29.8 µM
same,GI50,[18],2.11 µM
same,TGI,[18],11.1 µM
same,GI50,[19],13.5 µM
same,TGI,[19],> 52.3 µM
same,GI50,[20],8.49 µM
same,TGI,[20],25.6 µM
same,GI50,[21],7.33 µM
same,TGI,[21],25.9 µM
same,GI50,[22],13.2 µM
same,TGI,[22],45.7 µM
same,GI50,[23],5.55 µM
same,TGI,[23],33.3 µM
same,GI50,[24],12.3 µM
same,TGI,[24],49.7 µM
same,GI50,[25],9.27 µM
same,TGI,[25],39.7 µM
same,GI50,[26],3.45 µM
same,TGI,[26],13.6 µM
same,GI50,[27],15.6 µM
same,TGI,[27],> 76 µM
same,GI50,[28],15 µM
same,TGI,[28],> 72.5 µM
same,GI50,[29],9.91 µM
same,TGI,[29],> 80.4 µM
same,GI50,[30],14.8 µM
same,TGI,[30],45.1 µM
same,GI50,[31],18.2 µM
same,TGI,[31],> 88.3 µM
same,GI50,[32],8.99 µM
same,TGI,[32],29.8 µM
same,GI50,[33],2.73 µM
same,TGI,[33],> 100 µM
same,GI50,[34],5.9 µM
same,TGI,[34],42.3 µM
same,GI50,[35],9.9 µM
same,TGI,[35],30.9 µM
same,GI50,[36],11.8 µM
same,TGI,[36],40.7 µM
same,GI50,[37],8.95 µM
same,TGI,[37],> 56.9 µM
same,GI50,[38],4.6 µM
same,TGI,[38],23.8 µM
same,GI50,[39],16.3 µM
same,TGI,[39],> 67.8 µM
same,GI50,[40],6.85 µM
same,TGI,[40],28.3 µM
same,GI50,[41],11.3 µM
same,TGI,[41],26 µM
same,GI50,[42],12.2 µM
same,TGI,[42],37.5 µM
same,GI50,[43],9.22 µM
same,TGI,[43],21.6 µM
same,GI50,[44],13.7 µM
same,TGI,[44],34.2 µM
same,GI50,[45],11.4 µM
same,TGI,[45],35.6 µM
same,GI50,[46],4.62 µM
same,TGI,[46],> 73.9 µM
same,GI50,[47],13.3 µM
same,TGI,[47],34.6 µM
same,GI50,[48],15.1 µM
same,TGI,[48],44.9 µM
same,GI50,[49],11.7 µM
same,TGI,[49],29.8 µM
same,GI50,[50],8.26 µM
same,TGI,[50],> 100 µM
same,GI50,[51],14.5 µM
same,TGI,[51],44.6 µM
same,GI50,[52],19.6 µM
same,TGI,[52],> 75.1 µM
same,GI50,[53],7.37 µM
same,TGI,[53],30.7 µM
same,GI50,[54],4.34 µM
same,TGI,[54],38.8 µM
same,GI50,[55],19 µM
same,TGI,[55],99.1 µM
same,GI50,[56],9.2 µM
same,TGI,[56],40.5 µM
same,GI50,[57],6.43 µM
same,TGI,[57],63.2 µM
same,GI50,[58],13.3 µM
same,TGI,[58],31.8 µM

# — PubChem BioAssay (NCI)
